Measurements from patent publication US6753310B1, “Neovascular-specific peptides” (Otsuka Pharmaceutical Co., Ltd., priority 1998, dated 2004).

Test system: Meth A sarcoma
Experiment: Antitumor effect of adriamycin-including peptide-modified liposomes, tail vein administration
Format: in vivo, BALB/c mice
Conditions: FIG. 15; after three tail vein administrations on days 6, 9 and 12
Method: Solid tumor-bearing mice were prepared by subcutaneously administering Meth A sarcoma cells (1×10^6 cells/mouse) into the left flank of five-week-old BALB/c male mice (Japan SLC). The day of implantation was taken as day 1 and, on days 6, 9 and 12, the 0.3 M glucose solution (solvent) as a control, adriamycin (ADR)-including control liposomes (liposomes including the anticancer agent but free of any angiogenesis-specific peptide of the invention), a free ADR solution prepared by dissolving the anticancer agent ADR in a concentration of 15 mg/kg (mouse) in 0.3 M glucose, and the ADR-including, angiogenesis-specific peptide-modified liposomes of the invention as prepared above in (1) were respectively administered into the tail vein. In the test, 5 tumor-bearing mice were used in each group.
The antitumor effect of each agent administered was evaluated by examining, from 5 days after tumor implantation, the tumor volume as an indicator of tumor growth and the mouse body weight change as well as the survival period (days) as an indicator of side effect, in a similar manner as in Example 4 (2).
In the figure, the ordinate denotes the tumor volume and the ascissa denotes the number of days after tumor implantation. […]

Q: How did the death of mice turn out when `COc1cccc2c1C(=O)c1c(O)c3c(c(O)c1C2=O)C[C@@](O)(C(=O)CO)C[C@@H]3O[C@H]1C[C@H](N)[C@H](O)[C@H](C)O1` [free ADR solution, adriamycin] was run?
A: all mice died
